For one data set, the system named is Bscl2-GFP. As to the kind of experiment: in vitro. The note with it: mouse; for fold induction at 3 h / fold induction at 24 h: −fold induction Bscl 2. How it is done: (§1) In the context of the specification, the genotoxicity is measured according to the ToxTracker® assay (Toxys, Leiden, the Netherlands) as described in the Examples.
(§2) The genotoxicity was determined according to the ToxTracker® assay (Toxys, Leiden, the Netherlands) as described below.
(§3) This methodology uses a two-step approach.
(§4) Positive reference treatment with cisplatin (DNA damage) was included in all experiments. Metabolic was evaluated by the addition of S9 liver extract. […] Only GFP expression in single intact cells is determined. Mean GFP fluorescence and cell concentrations in each well are measured, which is used for cytotoxicity assessment. Data were analyzed using ToxPlot software (Toxys, Leiden, the Netherlands).

The subject of a further data set is Rtkn-GFP. As to the kind of experiment: in vitro. The note with it: mouse. As for the experimental part: as §1, §2, §3, §4

One may read the fold induction as the signal under treatment as a multiple of the control signal. Read a high fold induction as a large rise in signal. Take `CC1CN1CC(O)CN(Cc1cccc(CN(CC(O)CN2CC2C)CC(O)CN2CC2C)c1)CC(O)CN1CC1C` (stereo not drawn) [Example 2C]: in the data set with Bscl2-GFP, the fold induction at 3 h worked out at 1.3 and the fold induction at 24 h was 1.3.
Turning to `CC1CN1CC(O)COc1ccc(N(CC(O)CN2CC2C)CC(O)CN2CC2C)cc1` (stereo not drawn) [Example 3C], the fold induction at 24 h in the data set on Rtkn-GFP came out at 1.7. In the data set with Bscl2-GFP, this molecule returned a fold induction at 3 h of 1.2 and a fold induction at 24 h of 1.1.
Regarding `CC1CN1CC(O)COC(=O)NCCCCCCn1c(=O)n(CCCCCCNC(=O)OCC(O)CN2CC2C)c(=O)n(CCCCCCNC(=O)OCC(O)CN2CC2C)c1=O` (stereo not drawn) [Example 3], the figures for the fold induction at 3 h in the data set on Rtkn-GFP and in the data set with Bscl2-GFP were 1.1 and 1.2, respectively. Also, the fold induction at 24 h with Rtkn-GFP is 1.2; in the data set on Bscl2-GFP, 1.1. In the data set with Bscl2-GFP (3 h), the “−fold induction Bscl 2” value was 1.5 fold.
In the data set with Bscl2-GFP, `CC1CN1CC(O)COc1ccc(C(C)(C)c2ccc(OCC(O)CN3CC3C)cc2)cc1` (stereo not drawn) [Example 4C] came in with a fold induction at 3 h of 1.1 and a fold induction at 24 h of 1.1.
